How the values were obtained:
tubulin = biological target: T1, tubulin (Sus scrofa, UniProt P02550+P02554); assay: In vitro tubulin polymerization assay (OD based, absorbance 340 nm); type: biochemical, Porcine; conditions: 10 μM and 20 nM; FIG. 1; N=3
T1 construct: purchased Cytoskeleton Inc. BK006P
Method: The protocol followed for tubulin polymerization is according to the manufacturer's protocol. The following components were diluted as follows: • A vial of lyophilized GTP was diluted in 100 μl of sterile water and made into 10 μl aliquots and stored at −80° C. • Tubulin was diluted to 10 mg/ml in buffers+GTP as recommended, flash frozen in liquid nitrogen and stored at −80° C. • Paclitaxel was diluted to 2 mM in DMSO
The half area 96-well plate provided by kit manufacturer was allowed to warm up to 37° C. for 30 mins in the Molecular Devices M5 plate reader. The Compound 1 and nocodazole were diluted in DMSO to a concentration of 2 mM, followed by dilution of these working stocks in the General Tubulin Buffer (GTB-provided in the kit) to a 10× the final well concentration and final well volume of 10 μl. Same was done with the 2 mM Paclitaxel stock. Once the plate was warmed up, the compounds were added in duplicates to the wells. […] The plate was placed at 37° C. in the plate reader for 3 minutes. […] The experimental setup was as follows: • Absorbance read: 340 nm • Temperature: 37° C. • Shake: 5 s at medium speed prior to first read. • Read: The absorbance was read every 1 min for 90 minutes (total 91 reads).
The values were normalized to the first read by designating the first read as ‘0’ subtracting the value of the first read from the following reads. […]

HCT116 cells = assay: Spindle assembly checkpoint activation, flow cytometry; type: cell-based; conditions: 300 nM; FIG. 6
Method: • 1. Hct116 were grown in DMEM with 10% FBS and 1% Penicillin/Streptomycin. • 2. Cells were plated into 6 well dishes at indicated cell numbers below (i.e. plate 1=300 k cells per well) and treatment started later the same day. Asynchronous (Asynch) control cells (Plate 1 were collected 1 day after plating. Compound 1 and Nocodazole were both 300 nM, CDK1i Ro-3306 10 μM, Aurora Bi (ABi) Hesperadin 50 μM. • 3. Cells were treated with Compound 1 or Noc for 20 hours then sequentially without changing media they were treated with CDK1i or ABi for 4 more hours. Alternatively, cells were treated with Compound 1 or Noc for 20 h then washed twice with warm media and grown in fresh media for 4 hours to allow passage through mitosis into G1 as diploid cells. • 4. Note that plate 4 treatments were in general extremely toxic to cells or inconclusive.
• 1. Collected all media and cells into the same conical tube. Centrifuged cells at 1000×g for 3 min. • 2. Aspirated off supernatant, washed with PBS. • 3. Centrifuged cells as above. • 4. Resuspended cells in cold 400 μl and while gently vortexing added 1 mL cold 100% ethanol slowly dropwise (fixes and permeabilizes) • 5. Stored at 4 degrees C. for at a minimum of 1 hour, or up to one week. • 6. […] Analyzed data with FlowJo 10 software and made graphs with GraphPad Prism.

T1 sequence (P02550 whole entry): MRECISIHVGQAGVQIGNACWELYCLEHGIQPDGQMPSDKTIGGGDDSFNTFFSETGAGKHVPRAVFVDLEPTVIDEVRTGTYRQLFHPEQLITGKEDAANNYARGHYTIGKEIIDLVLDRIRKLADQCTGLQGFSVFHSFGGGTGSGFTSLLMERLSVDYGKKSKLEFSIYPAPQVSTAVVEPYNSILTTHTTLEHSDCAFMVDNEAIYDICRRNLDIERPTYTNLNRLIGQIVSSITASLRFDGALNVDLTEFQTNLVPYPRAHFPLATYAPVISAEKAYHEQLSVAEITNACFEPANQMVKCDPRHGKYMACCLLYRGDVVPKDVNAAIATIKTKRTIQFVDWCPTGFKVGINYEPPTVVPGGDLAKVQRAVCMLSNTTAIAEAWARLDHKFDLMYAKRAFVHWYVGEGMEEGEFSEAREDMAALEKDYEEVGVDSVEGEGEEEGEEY
T1 sequence (P02554 whole entry): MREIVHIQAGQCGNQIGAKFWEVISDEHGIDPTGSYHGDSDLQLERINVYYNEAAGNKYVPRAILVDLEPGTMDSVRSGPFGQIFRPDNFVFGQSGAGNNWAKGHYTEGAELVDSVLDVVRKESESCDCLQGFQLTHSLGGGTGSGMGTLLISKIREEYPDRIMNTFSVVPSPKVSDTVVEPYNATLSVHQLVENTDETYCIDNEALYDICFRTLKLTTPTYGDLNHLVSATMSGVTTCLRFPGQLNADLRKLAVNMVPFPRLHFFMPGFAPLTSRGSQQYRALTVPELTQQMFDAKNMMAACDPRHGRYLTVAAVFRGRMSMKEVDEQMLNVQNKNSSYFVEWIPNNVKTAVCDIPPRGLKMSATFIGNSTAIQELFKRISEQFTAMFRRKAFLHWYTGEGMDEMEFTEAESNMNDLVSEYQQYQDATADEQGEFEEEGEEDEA

With COc1ccccc1-c1nc(CNC(=O)c2ccccc2OC(F)F)n[nH]1 [Compound 1, 2-(difluoromethoxy)-N-[[5-(2-methoxyphenyl)-1H-1,2,4-triazol-3-yl]methyl]benzamide] the “Microtubule polymerization (absorbance at 340 nm, Vmax)” value (tubulin) was “inhibits microtubule polymerization” and the “Spindle assembly checkpoint activation, mechanism” value (HCT116 cells) was “a mechanism at or before microtubule-kinetochore attachment in M phase of the cell cycle”.
